# Assay: Oral bioavailability in rat
# Assay type: ADME, organism-based
# Conditions: in vivo
row,Structure (SMILES),bioavailability [%]
1,Fc1cc(F)c(-c2cc(Nc3ccncc3)c3cc[nH]c3n2)cc1Cl,13
2,Fc1ccc(-c2cc(Nc3ccncc3)c3cc[nH]c3n2)c(F)c1,65
3,C[C@H](O)CNC(=O)c1cnccc1Nc1cc(-c2cc(Cl)ccc2F)nc2[nH]ccc12,17
4,Cc1cnc(-c2cc(Cl)ccc2F)cc1-n1c(=O)n(CC(N)=O)c2cnccc21 [TP-008],62

# — ChEMBL document CHEMBL4425174, “Design, synthesis and optimization of novel Alk5 (activin-like kinase 5) inhibitors” (Bioorg Med Chem Lett, 2016)
